Results as given in paper PMC11413853, “Discovery of VU6007496: Challenges in the Development of an M1 Positive Allosteric Modulator Backup Candidate” (ACS Chemical Neuroscience, 2024).

Columns and labels:
Calcium Channel N-Type = experiment: Eurofins radioligand binding; parameters: species or system Rat; details: specific binding
Adrenergic α2A = experiment: Eurofins radioligand binding; parameters: species or system Human; details: specific binding
4-strain Ames = 4-strain Ames assay; details: with and without S9
CYP2B6 = experiment: CYP induction (mRNA) in cryopreserved human hepatocytes, CYP2B6; assay type: in vitro ADME; details: three donors
Source text: (§1) To advance 11 as a candidate and into IND-enabling studies, we next needed to better understand its CYP profile to minimize drug–drug interactions in the clinic. […] We were pleased to see the contribution of another CYP beyond 3A4 for the metabolism of 11.[21] In parallel, we investigated the ability of PAM 11 to induce the expression of CYP450s (measuring mRNA) in cryopreserved human hepatocytes from three separate donors.

MET ID in rat liver S9 = assay type: in vitro ADME; details: based on MS peak areas
Source text: Eight oxidative metabolites were identified, with the major metabolite in both rat and human being Metabolite A (VU6036463, 24), the result of oxidative N-demethylation of the southern pyrazole (Scheme 4). The majority of other oxidative metabolism occurred on the tetrahydropyran moiety and included ring opening, but there was no amide hydrolysis observed.[21]

Adrenergic β2 = experiment: Eurofins radioligand binding; parameters: species or system Human; details: specific binding
Muscarinic M2 = experiment: Eurofins radioligand binding; parameters: species or system Human; details: specific binding
CYP3A4 = experiment: CYP induction (mRNA) in cryopreserved human hepatocytes, CYP3A4; assay type: in vitro ADME; details: three donors
Source text: as §1

Phorbol Ester = experiment: Eurofins radioligand binding; parameters: species or system Mouse; details: specific binding
[1] = tested on: Epidermal Growth Factor (EGF); experiment: Eurofins radioligand binding; parameters: species or system Human; details: specific binding
[2] = tested on: GABAA, Flunitrazepam, Central; experiment: Eurofins radioligand binding; parameters: species or system Rat; details: specific binding
Interleukin IL-1 R1 = experiment: Eurofins radioligand binding; parameters: species or system Human; details: specific binding
Opiate μ (OP3, MOP) = experiment: Eurofins radioligand binding; parameters: species or system Human; details: specific binding
[3] = tested on: Nicotinic Acetylcholine α3β4; experiment: Eurofins radioligand binding; parameters: species or system Human; details: specific binding
Glutamate, Kainate = experiment: Eurofins radioligand binding; parameters: species or system Rat; details: specific binding
Bradykinin B1 = experiment: Eurofins radioligand binding; parameters: species or system Human; details: specific binding
Adrenergic β1 = experiment: Eurofins radioligand binding; parameters: species or system Human; details: specific binding
Dopamine D2S = experiment: Eurofins radioligand binding; parameters: species or system Human; details: specific binding
[4] = IV/PO pharmacokinetics, rat; assay type: in vivo; details: rat (SD), dose iv/po 1/10 mg/kg; for clearance / Vd / half-life: Sprague-Dawley, plasma, 1 mg/kg; for clearance: read-out: CLp; for Vd: read-out: Vss; for half-life: read-out: elimination t1/2 (converted)
Experimental: We next conducted multispecies IV/PO PK in parallel as a potential discerning data set. […] With a strong desire to employ dog as the nonrodent safety species, the challenge to address the low %F in dog was enough to triage PAM 12 and focus on the advancement of 11 (Table 3). […]
Pharmacokinetic profiles in rats following oral single escalating doses Single escalating oral dosing in Sprague-Dawley rats was performed at Frontage Laboratories according to their non-GLP Standard Operating Procedure and IACUC protocols. In short, compounds were formulated in 10% Tween 80 in water and dosed at 10 mg/kg. At different times, arterial blood was collected from a femoral artery catheter, and compound concentration was determined in plasma by LC-MS/MS following their non-GLP protocol. PK parameters were determined using Phoenix WinNonlin software (version 6.3). […]

Glucocorticoid = experiment: Eurofins radioligand binding; parameters: species or system Human; details: specific binding
Rolipram = experiment: Eurofins radioligand binding; parameters: species or system Rat; details: specific binding
[5] = Plasma protein binding, cyno; assay type: in vitro ADME; details: cynomolgus monkey, pH 7.4, read-out: fu,plasma cyno
Experimental: Plasma protein binding and Brain homogenate binding: Determination of fraction unbound (f u) in plasma was conducted in vitro via equilibrium dialysis using HTDialysis (HTD) membrane plates. The top half of the plate was filled with 100 uL of Dubelco’s Phosphate Buffered Saline, pH 7.4 (DPBS). Compounds were diluted into plasma from each species (5 µM final concentration), which was aliquoted in triplicate to the ‘bottom half’ of the prepared HTD plate wells. The HTD plate was sealed and incubated for 6 hours at 37 °C. Following incubation, each well (both top and bottom halves) were transferred (20 µL) to the corresponding wells of a 96-shallow-well (V-bottom) plate. […]
The unbound fraction (f u) was calculated following the equation below, and mean values for each species were calculated from 3 replicates.
A similar approach was used to determine the degree of brain homogenate binding, which employed the same methodology and procedure with the following modifications: 1) a final compound concentration of 1 μM was used, 2) naïve rat brains were homogenized in DPBS (1:3 composition of brain: DPBS, w/w) using a Mini-Bead Beater™ machine in order to obtain brain homogenate, which was then treated in the same manner as the plasma samples in the previously described plasma protein binding assay. Fraction unbound for both plasma and brain samples was determined using Equation 4. […]

Adenosine A3 = experiment: Eurofins radioligand binding; parameters: species or system Human; details: specific binding
Muscarinic M3 = experiment: Eurofins radioligand binding; parameters: species or system Human; details: specific binding
Opiate κ (OP2, KOP) = experiment: Eurofins radioligand binding; parameters: species or system Human; details: specific binding
[6] = tested on: Transporter, Serotonin (SERT); experiment: Eurofins radioligand binding; parameters: species or system Human; details: specific binding

With Cn1ccc(-c2ccc(Cc3cc(C(=O)NC4CCOCC4)nc4ccn(C)c34)cc2)n1 [compound 11] the “% Inhibition at 10 µM” value (Calcium Channel N-Type) was 8%, the “% Inhibition at 10 µM” value (Adrenergic α2A) was -7% and the Ames result (4-strain Ames) was “negative”. The “CYP2B6 induction (mRNA)” value (CYP2B6) was about 8 fold, the “extent of metabolism, rat liver S9” value (MET ID in rat liver S9) was 36.8% and the “% Inhibition at 10 µM” value (Adrenergic β2) was 7%. The “% Inhibition at 10 µM” value (Muscarinic M2) was 0%, the “CYP3A4 induction (mRNA)” value (CYP3A4) was about 21 fold and the “% Inhibition at 10 µM” value (Phorbol Ester) was -1%. The “% Inhibition at 10 µM” value [1] was 5%, the “% Inhibition at 10 µM” value [2] was -3% and the “% Inhibition at 10 µM” value (Interleukin IL-1 R1) was 10%. The “% Inhibition at 10 µM” value (Opiate μ (OP3, MOP)) was -4%, the “% Inhibition at 10 µM” value [3] was 6% and the “% Inhibition at 10 µM” value (Glutamate, Kainate) was -19%. For the same molecule, the “% Inhibition at 10 µM” value (Bradykinin B1) was 21%, the “% Inhibition at 10 µM” value (Adrenergic β1) was -14% and the “% Inhibition at 10 µM” value (Dopamine D2S) was 5%. The clearance [4] was 26 mL/min/kg, the Vd [4] was 3.2 L/kg and the half-life [4] was 6.1 h. For the same molecule, the “F (%) po” value [4] was 66%, the “% Inhibition at 10 µM” value (Glucocorticoid) was 5% and the “% Inhibition at 10 µM” value (Rolipram) was 10%. For the same molecule, the fraction unbound at 6 h, 5 µM [5] was 0.026, the “% Inhibition at 10 µM” value (Adenosine A3) was 38% and the “% Inhibition at 10 µM” value (Muscarinic M3) was -4%. The “% Inhibition at 10 µM” value (Opiate κ (OP2, KOP)) was 32% and the “% Inhibition at 10 µM” value [6] was -7%.
With Cn1ccc(-c2ccc(Cc3cc(C(=O)NC4CCOCC4)nc4ccsc34)cc2)n1 [compound 12] the Ames result (4-strain Ames) was “negative”, the clearance [4] was 33 mL/min/kg and the Vd [4] was 8.2 L/kg. For the same molecule, the half-life [4] was 5.3 h, the “F (%) po” value [4] was 100% and the fraction unbound at 6 h, 5 µM [5] was 0.009.
